{"source": "patent US20100203587A1", "about": "“USE OF DNA GYRASE INHIBITORS FOR IN VITRO POLYPEPTIDE SYNTHESIS REACTIONS” (priority 2009, published 2010)", "key": {"[1]": {"tested_on": "bacterial growth from lysate", "assay": "Inhibition of bacterial growth from lysate in LB medium (Example 6)", "format": "cell-based", "conditions": "16 hours; for OD595 (cell density): 37° C."}, "bacterial strains": {"tested_on": "bacterial strains", "conditions": "cited from earlier work; for minimum inhibitory concentration (According to literature): Klein et al."}, "[2]": {"tested_on": "GM-CSF yields in cell-free reactions", "assay": "Cell-free protein synthesis reaction, GM-CSF yields", "format": "biochemical, E. coli", "conditions": "for Concentration with very mild impact on GM-CSF yields in cell-free reactions: FIG. 3, 60 μL scale; for Concentration without impact in cell-free reactions: GM-CSF yields", "experimental": "In vitro protein synthesis reactions occurred in lysates generated from a population of cells. The lysate must be generated such that it would be useful for expressing proteins. E. coli A19ΔendAΔtonAΔspeAΔtnaAΔsdaAΔsdaBΔgshAΔgorTrxBHAmet^+ was used for as the extract source cell strain.\nE. coli cells were grown in a 10 L Braun Biostat C fermentor. The cells were grown on 2YPTG media in batch mode with pH control at pH 7.0. The cells were harvested at 3.2 OD (595) at growth rate of >0.7 per hour. Cells were separated from the media by centrifugation at 6000 g, 4° C. for 25 min and the resulting cell paste was stored at −80° C. The cell paste was thawed at 4° C. in S30 buffer (10 mM TRIS-acetate pH 8.2 (Sigma-Aldrich Corp. St. Louis, Mo.), 14 mM magnesium acetate (Sigma-Aldrich), and 60 mM potassium acetate (Sigma-Aldrich)) at a ratio of 1 mL of buffer per 1 g of wet cell paste. Resuspended cells were passed through a high pressure homogenizer (Emulsiflex C-50, Avestin Inc., Ottawa, Ontario, Canada). The pressure drop was set at 20000 psi. The homogenized mixture was then centrifuged at 30000 g, 4° C. for 30 minutes. The procedure was repeated twice and the supernatant was retained both times. The mixture was incubated at 37° C. for 80 min in a rotary shaker. The lysate was then centrifuged at 20000 g, 4° C. for 30 minutes and supernatant was retained.\nThe extract was pretreated with 50 μM iodoacetamide at 21° C. for 30 min. The plasmid contained the structural gene encoding the target protein and was constructed as explained above. Amino Acids were in an equimolar mixture of all 20 native amino acids.\nThe 250 μL of reaction mixture is spread on the bottom of a petri dish (BD Falcon) and incubated at 30° C. in a sealed humidified incubator for 5 hours. 300 mL reaction is performed in QPlus bioreactor, 4 L in 10 L Braun Biostat C fermentor and 100 L in 200 L fermentor (Sartorius)."}, "[3]": {"tested_on": "bacterial growth in lysates used for cell-free reactions", "assay": "Inhibition of bacterial growth from lysate in LB medium (Example 5)", "format": "cell-based", "conditions": "20 hours; for OD595: 30° C.; for Concentration that inhibits growth: Example 5, 30° C.", "experimental": "20 μl of lysate was inoculated into 2 ml LB medium, which contained 0, 0.1, 0.25, 0.5, and 1 μg/mL of Norfloxacin or 0, 1, 2.5, 5, and 10 μg/ml Coumermycin A1 and was incubated at 30° C. by shaking at 300 rpm. OD595 was assayed after incubation for 20 hours."}, "Clostridium difficile": {"tested_on": "Clostridium difficile", "conditions": "Clostridium difficile (Shungu et al.); cited from earlier work"}, "[4]": {"tested_on": "hepatic nonprotein sulfhydryl groups (mainly reduced glutathione)", "conditions": "in vivo and in vitro studies using rats (Lake et al.; Fernyhough et al.); cited from earlier work"}}, "note": "Where two headings read alike, the source gives them in different places.", "data": [{"compound": "O=C(O)c1cn(C2CC2)c2cc(N3CCNCC3)c(F)cc2c1=O", "note": "[Ciprofloxacin]", "values": [{"measurement": "Concentration that inhibits growth", "setting": "[1]; Example 6, 37° C.", "result": 1, "unit": "µg/mL"}, {"measurement": "minimum inhibitory concentration (According to literature)", "setting": "bacterial strains", "result": "1 (1) μg/ml"}, {"measurement": "minimum inhibitory concentration (According to literature)", "setting": "bacterial strains; listed as ciprofloxacin", "result": "about 1 μg/ml"}]}, {"compound": "CCn1cc(C(=O)O)c(=O)c2cc(F)c(N3CCNCC3)cc21", "note": "[Norfloxacin]", "values": [{"measurement": "Concentration with very mild impact on GM-CSF yields in cell-free reactions", "setting": "[2]", "result": "up to 2.5 μg/ml"}, {"measurement": "Concentration without impact in cell-free reactions", "setting": "[2]", "result": 2.5, "unit": "µg/mL"}, {"measurement": "Concentration that inhibits growth (According to literature)", "setting": "bacterial strains; most gastrointestinal strains tested (Shungu et al.)", "result": "0.008 to 1", "unit": "µg/mL"}, {"measurement": "OD595", "setting": "[3]; 0.1 μg/ml", "result": 1.8}, {"measurement": "OD595", "setting": "[3]; 0.25 μg/ml", "result": 1.3}, {"measurement": "OD595", "setting": "[3]; 0.5 μg/ml", "result": 1.2}, {"measurement": "OD595", "setting": "[3]; 1 μg/ml", "result": 0.06}, {"measurement": "Concentration that inhibits growth", "setting": "[3]", "result": 1, "unit": "µg/mL"}, {"measurement": "inhibitory concentration (literature)", "setting": "Clostridium difficile", "result": "1 to 128", "unit": "µg/mL"}]}, {"compound": "CO[C@@H]1[C@@H](OC(N)=O)[C@@H](O)[C@H](Oc2ccc3c(O)c(NC(=O)c4ccc(O)c(CC=C(C)C)c4)c(=O)oc3c2C)OC1(C)C", "note": "[Novobiocin]", "values": [{"measurement": "Effect on hepatic nonprotein sulfhydryl groups (mainly reduced glutathione)", "setting": "[4]", "result": "depletion of hepatic nonprotein sulfhydryl groups"}, {"measurement": "OD595 (cell density)", "setting": "[1]; 10 μg/ml", "result": 0.003}, {"measurement": "OD595 (cell density)", "setting": "[1]; 25 μg/ml", "result": 0.17}, {"measurement": "OD595 (cell density)", "setting": "[1]; 50 μg/ml", "result": 0.08}, {"measurement": "OD595 (cell density)", "setting": "[1]; 100 μg/ml", "result": 0.1}, {"measurement": "OD595 (cell density)", "setting": "[1]; 200 μg/ml", "result": 0.13}, {"measurement": "Concentration that negatively impacts GM-CSF yields in cell-free reactions", "setting": "[2]; FIG. 5", "result": "≥ 10", "unit": "µg/mL"}, {"measurement": "Concentration that inhibits growth (According to literature)", "setting": "bacterial strains; different bacterial strains (Smith and Davis)", "result": "100 to 300", "unit": "µg/mL"}]}, {"compound": "Coumermycin A1", "values": [{"measurement": "Concentration with very mild impact on GM-CSF yields in cell-free reactions", "setting": "[2]", "result": 10, "unit": "µg/mL"}, {"measurement": "Concentration without impact in cell-free reactions", "setting": "[2]", "result": 10, "unit": "µg/mL"}, {"measurement": "Concentration that inhibits growth (According to literature)", "setting": "bacterial strains; some strains tested (Hooper et al.)", "result": "2 to 8", "unit": "µg/mL"}, {"measurement": "OD595", "setting": "[3]; 1 μg/ml", "result": 1.7}, {"measurement": "OD595", "setting": "[3]; 2.5 μg/ml", "result": 1.2}, {"measurement": "OD595", "setting": "[3]; 5 μg/ml", "result": 1.1}, {"measurement": "OD595", "setting": "[3]; 10 μg/ml", "result": 0.2}, {"measurement": "Concentration that inhibits growth", "setting": "[3]", "result": 10, "unit": "µg/mL"}]}]}
